# Data as given in patent US20210113687A1, “METHODS FOR TREATING INFLAMMATION” (NEW YORK UNIVERSITY, priority 2013, published 2021).
# What was measured:
# [1] = system: human Netrin-1 promoter luciferase reporter construct; assay: Netrin-1 promoter-luciferase assay in HEK293T; type: cell-based; details: BAY 11-7082 20 μM pretreatment
# Method: Netrin-1 Promoter-Luciferase MMV HEK293T were transfected with a human Netrin-1 promoter luciferase reporter construct (SwitchGear Genomics) using Lipofectamine™ 2000 (Invitrogen). After transfection, media was changed and cells were pretreated with the NFKB inhibitor BAY 11-7082 (20 μM) for 1 hour prior stimulation with 100 μg/ml oxLDL or PBS as a control for 24 hours. Luciferase activity was assessed using the Dual-Glo Luciferase Assay System (Promega) and normalized to a constitutively expressed Renilla reporter.
# [2] = system: human NTNI promoter-luciferase reporter; assay: NTN1 promoter-luciferase assay (Example 4); type: cell-based; details: pretreating with NFkB inhibitor
# Method: (§1) Promoter-Luciferase assays. HEK293T cells were transfected with human NTNI or Unc5H2 promoter-luciferase reporter constructs (SwitchGear Genomics) using Lipofectamine™ 2000 (11668-019, Invitrogen) After transfection, media was changed and cells were treated with palmitate or BSA for 24 hours, in the presence or absence of the NFkB inhibitor BAY 11-7082 (10 μmol/L). Luciferase activity was measured using the DUAL-Glo Luciferase Assay system (E1910, Promega).
# [3] = system: human Unc5H2 promoter-luciferase reporter; assay: Unc5H2 promoter-luciferase assay (Example 4); type: cell-based; details: pretreating with NFkB inhibitor
# Method: as §1
# [4] = system: BMDM; assay: netrin-1 ELISA of BMDM supernatants; type: cell-based, mouse; details: blocking NFkB
# Method: (§2) Cell culture. Primary bone marrow derived macrophage (BMDM) was prepared by flushing the bone marrow of the tibia and femur of 6-8 week old C57/B6 mice. The cells were grown in DMEM supplemented with 15% L929-conditioned media, 10% FBS and 1% penicillin/streptomycin for 7 days. BMDM were stimulated 250 pM palmitate conjugated with BSA or BSA as a control for 24 hours, or TNFα (10 ng/ml, 410-MT-010; R&D systems), IL-6 (40 nglml, 406-ML-005; R&D systems) and IL-4 (1 Onglml, 404-ML-010; R&D systems) for 24 h. In some assays, differentiated BMDM were treated with conditioned media from 3T3-L1 adipocytes differentiated as described (Lin, et al., J Biol Chem, 2005; 280:4617-4626) and treated with 250 pM palmitate conjugated with BSA or BSA for 24 hours. In certain experiments, anti-TNFα (0.4 μg/ml, AF-410-NA, R&D systems) or anti-IL-6 (0.025 μg/ml, MAB406; R&D systems) blocking antibody or IgG control (Normal Goat IgG: AB-108-C, Rat IgG1: MAB005; R&D systems) was added to conditioned media. […]
# ELISA assay. Insulin (90080; crystal Chem Inc), adiponectin (ab108785; Abeam), FFA (SFA-1; Zen Bio), TNFa (88-7064-76; ebiosciences) and netrin-1 (E91827Mu; USCN life science Inc) levels were measured in the serum using mouse standards according to manufacturer's guidelines. Netrin-1 in human serum was measured using a human-specific netrin-1 ELISA from USCN Life Science Inc (700176; mybiosource).
# [5] = system: Human NTN1 promoter-luciferase reporter; assay: NTN1 promoter luciferase assay (Example 2); type: cell-based
# Method: (§3) Human NTN1 or UNC5B promoter-luciferase reporter plasmids (Switchgear Genomics) were transfected into HEK293T using Lipofectamine™ 2000 (11668-019, Invitrogen). After transfection, media was changed and cells were treated with oxLDL (50 μg/ml) or CoCl2 (0.1 mM), or DMOG (1 mmol/1) for 24 hours, in the presence or absence (PBS control) of inhibitors of NFκB (10 μmol/L Bay11-7082) or HIF1α (100 μmol/L HIF-1α inhibitor). Luciferase activity was measured using foe DUAL-Glo Luciferase Assay system (E1910, Promega) and normalized to a constitutively expressed renilla reporter or to protein concentration.
# [6] = system: BMDMs; assay: qPCR of macrophages under hypoxic stress; type: cell-based, mouse
# Method: Primary bone marrow derived macrophage (BMDM) were prepared by flushing the bone marrow of the tibia and femur of 6-8 week old C57/B6 mice as described (The cells were grown in DMEM supplemented with 15% L929-conditioned media, 10% FBS and 1% penicillin/streptomycin for 7 days and then treated with oxLDL or subjected to hypoxic conditions. Hypoxic incubations were carried out at 37° C. in a Billups-Rothenberg modular incubator chamber at 1% O2, 5% CO2 and 94% N2 for 24 hours. J774 control (J774con) and HIF-1α overexpressing (J774Hif) macrophages (Parathath et al., Circ. Res. 2011; 109:1141-1152) were grown in 5.5 mmol/L glucose containing DMEM supplemented with 15% FBS and 1% penicillin/streptomycin.
# Total RNA was isolated using TRIZOL reagent and RNA ([…]) was reverse transcribed with an iScript cDNA Synthesis kit according to the manufacturer's instructions (Bio-Rad). RT-PCR analysis was performed using iQ SYBR green Supermix (Biorad) and a Mastercycler Realplex (Eppendorf) as we described (van Gils et al., Nat Immunol, 2012; 13:136-143). The change in mRNA expression was calculated by the comparative change-in-cycle-method (DDCT) relative to GAPDH mRNA levels. The following primer sets were used;
# [7] = system: Human UNC5B promoter-luciferase reporter; assay: UNC5B promoter luciferase assay (Example 2); type: cell-based; details: treatment with HIF-1α inhibitor
# Method: as §3
# [8] = system: BMDMs; assay: Apoptotic assays of growth-factor deprived BMDM (TUNEL, active caspase-3); type: cell-based, mouse
# Method: To induce apoptosis, BMDMs were grown in foe absence of L929 conditioned media (CM) for 3 days under normoxic or hypoxic conditions. In some assays, cells were treated with 100 μmol/L HIF-1α inhibitor or Unc5b-FC fragment or control IgG. After treatment, apoptotic cells were labeled with PE-active caspase-3 (557091, BD pharmingen) or by the TUNEL method using an in situ cell detection kit (Roche Diagnostics). Active Caspase-3, TUNEL and DAPI staining were analyzed with a Nikon Eclipse fluorescent microscope. Only TUNEL positive cells that colocalized with DAPI stained nuclei were considered apoptotic.
# [9] = system: mouse peritoneal macrophages; assay: Migration assay of peritoneal macrophages (pMø); type: cell-based; details: for inhibitory effect of netrin-1 on CCL19-induced migration: macrophages pre-incubated with agent
# Method: Migration assays. Chemotaxis of macrophages (pMø, RAW264.7) and CaSMC was measured in 96-well Boyden chamber with a 5 μm (macrophages) or 8 μm pore size filter (CaSMC) (Neuro Probe) as previously described (Ly, et al., Proc Natl Acad Sci USA, 2005, 102: 14729-14734). Macrophage chemotaxis was also quantified using a Real-time Cell Invasion and Migration (RT-CIM)×Celligence assay system with monitoring every 5 min (Roche Applied Science). […] In some assays, cells were pretreated with netrin-1 or UNC5b blocking antibody (AF1006, R&D Systems) or Neogenin blocking antibody (Santa Cruz, sc-6537) or control goat IgG (Santa Cruz) for 1 hour prior to migration. Following cell migration for 3 or 16 hours (CaSMC and macrophages, respectively), four random high power fields from each well were counted to determine the number of cells that had migrated into the lower chamber. Migration was expressed as chemotactic index, which was calculated by dividing the number of migrating cells in the treated groups by the number of migrating cells in the lowest control well. Results of chemotaxis assays are representative of at least three independent experiments performed on triplicate samples.
# [10] = system: Rac1; assay: Rac1 activation assay; type: cell-based, mouse; details: MCP-1 stimulation, within 5 minutes
# Method: Rac1 activation assays Peritoneal macrophages were seeded in a 6-well plate overnight in regular growth media. The cells were stimulated with MCP-1 (10 ng/ml R&D systems) for 5 minutes with or without a pretreatment with mouse recombinant netrin-1 (250 ng/ml, R&D Systems) for 30 minutes. At the end of stimulation the cells were lysed and Rac1-GTP levels were measured using Rac1 Activation Assay (Cell Biolabs) according manufacturer's instructions.
# [11] = system: BMDM; assay: qRT-PCR of BMDM (palmitate, cytokines, adipocyte conditioned media); type: cell-based, mouse; details: direct addition of cytokine
# Method: Real-time Quantitative RT-PCR Analysis RNA (0.5-1 μg) was reverse transcribed using iScript™ cDNA Synthesis Kit (Biorad) and RT-PCR analysis was conducted using kapa SYBR green Supermix (kappa syber) and a Mastercycler Realplex (Eppendorf) the primers used are listed. Fold change in mRNA expression was calculated using the comparative cycle method (ΔΔCt).
# Cell culture. Primary bone marrow derived macrophage (BMDM) was prepared by flushing the bone marrow of the tibia and femur of 6-8 week old C57/B6 mice. The cells were grown in DMEM supplemented with 15% L929-conditioned media, 10% FBS and 1% penicillin/streptomycin for 7 days. BMDM were stimulated 250 pM palmitate conjugated with BSA or BSA as a control for 24 hours, or TNFα (10 ng/ml, 410-MT-010; R&D systems), IL-6 (40 nglml, 406-ML-005; R&D systems) and IL-4 (1 Onglml, 404-ML-010; R&D systems) for 24 h. In some assays, differentiated BMDM were treated with conditioned media from 3T3-L1 adipocytes differentiated as described (Lin, et al., J Biol Chem, 2005; 280:4617-4626) and treated with 250 pM palmitate conjugated with BSA or BSA for 24 hours. In certain experiments, anti-TNFα (0.4 μg/ml, AF-410-NA, R&D systems) or anti-IL-6 (0.025 μg/ml, MAB406; R&D systems) blocking antibody or IgG control (Normal Goat IgG: AB-108-C, Rat IgG1: MAB005; R&D systems) was added to conditioned media. Peritoneal macrophages were isolated as described (van Gils, et al., Nat Immunol, 2012; 13:136-143). Mice were injected intraperitoneally with 1 ml of 3% (wt/vol) thioglycolate to elicit sterile sterile peritonitis with macrophage numbers peaking on day 4. Cells were collected by lavage and used for migration assays.
# Palmitate-BSA preparation. Sodium palmitate (P9767; Sigma Aldrich) was dissolved in sterile water in to make a 100-mM solution by alternating heating and vortexing until the palmitate was dissolved. Thu occurred once the solution reached 70 C. […]
# [12] = system: BMDM; assay: BMDM migration towards MCP-1 (xCelligence); type: cell-based, mouse; details: treatment with Unc5b-FC
# Method: (§4) Macrophage chemotaxis was measured using the Real-Time Cell Invasion and Migration xCelligence Assay System with monitoring every 3 min (Roche Applied Science). BMDM migration towards MCP-1 (100 ng/ml; R&D Systems) was measured in the presence or absence of oxLDL (50 μg/ml) and/or recombinant rat UNC5b-Fc chimera (1006-UN; R&D Systems) to block the effects of netrin-1. In a subset of experiments, cells were pre-treated with 0.1 mmol/L CoCl2 for 1 h prior to migration. J774 macrophage migration was carried out in the presence or absence of UNC5b-Fc chimera. Results of chemotaxis assays are representative of at least three independent experiments performed on triplicate samples.
# [13] = system: J774Hif macrophages; assay: J774 macrophage migration (xCelligence); type: cell-based, mouse; details: treated with Unc5b-FC, no exogenous chemokine
# Method: as §4
# [14] = system: peritoneal macrophages; assay: Migration of palmitate-treated peritoneal macrophages to CCL19; type: cell-based, mouse; details: addition of Unc5b-FC
# Method: as §2, with “media. Peritoneal macrophages were isolated as described (van Gils, et al., Nat Immunol, 2012; 13:136-143).” for “media.”
# Migration. The migration of ATM or peritoneal macrophages to CCL19 (500 ng/ml; R&D Systems) was assessed by the xCelligence Real-time Cell Invasion and Migration system (ACEA biosciences Inc) that monitored chemotaxis every 5 minutes for over 6 h. […]
molecule,measurement,setting,value
Cc1ccc(S(=O)(=O)/C=C/C#N)cc1 [BAY 11-7082],oxLDL induction of netrin-1 promoter activity,[1],inhibited
CC(C)(C)c1ccc(S(=O)(=O)/C=C/C#N)cc1 [BAY 11-7085],palmitate-induced Ntn1-promoter luciferase activity,[2],"inhibited, in part"
same,palmitate-induced Unc5b-promoter luciferase activity,[3],"inhibited, in part"
same,palmitate-induced secretion of netrin-1 by BMDM,[4],"inhibited, in part"
"COC(=O)CNC(=O)C(=O)OC [DMOG, dimethyloxalylglycine]",Ntn1 promoter activity,[5]; HEK293 cells,potently induced
COC(=O)c1ccc(O)c(NC(=O)COc2ccc(C34CC5CC(CC(C5)C3)C4)cc2)c1 [HIF-1α inhibitor],oxLDL-induced Unc5b mRNA in BMDM,[6]; HIF-1α inhibitor,required HIF-1α activity
same,"Unc5b mRNA in response to low oxygen concentration, CoCl2 or DMOG",[6]; pre-treated with HIF-1α inhibitor,no upregulation of Unc5b
same,"increase in Ntn1 mRNA under hypoxia, CoCl2, DMOG or oxLDL",[6]; pretreatment with HIF-1α inhibitor,blocked
same,oxLDL- and DMOG-induced increase in Ntn1 promoter activity,[5]; presence or absence of HIF-1α inhibitor,dependent on HIF-1α activity
same,oxLDL-induced increase in Unc5b promoter activity,[7],abrogated
same,protection from apoptosis (TUNEL) under hypoxic conditions,"[8]; growth-factor deprived BMDM, HIF-1α inhibitor",reversed
Cn1c(=O)c2nc(-c3ccccc3)[nH]c2n(C)c1=O [inhibitor of the A2B adenosine receptor],inhibitory effect of netrin-1 on CCL19-induced migration,[9],no change
MCP-1: chemokine MCP-1 (R&D Systems),levels of activated Rac1,[10],approximately 3 fold
TNFα,Ntn1 mRNA in BMDMs,[11],increased Ntn1 mRNA
"UNC5b-Fc: recombinant rat UNC5b-Fc chimera (cat #1006-UN, R&D Systems) to block the effects of netrin-1",inhibition of migration to CCL19 by conditioned medium from oxLDL-treated macrophages,[9]; addition of recombinant UNC5b-Fc,reversed
same,inhibitory effect of netrin-1 on CCL19-induced migration,[9],reversed the inhibitory effect of netrin-1
same,CoCl2 impairment of macrophage migration to MCP-1,[12],reversed this effect
same,migration of J774-HIF cells,[13],comparable to control J774 macrophages
same,TUNEL and active caspase-3 staining under hypoxic conditions,"[8]; growth factor deprived macrophages, Unc5b-FC",increased TUNEL and active caspase-3 staining similar to normoxic controls
same,migration of palmitate-treated macrophages to CCL19,[14],restored
